In ChEMBL document CHEMBL1150501 (Bioorg Med Chem Lett, 1995):

Biological target: Glucagon receptor (Rattus norvegicus, UniProt P30082)
Assay: pA2 value towards glucagon receptor relative to glucagon was calculated

Chain of Glucagon receptor (P30082 whole entry): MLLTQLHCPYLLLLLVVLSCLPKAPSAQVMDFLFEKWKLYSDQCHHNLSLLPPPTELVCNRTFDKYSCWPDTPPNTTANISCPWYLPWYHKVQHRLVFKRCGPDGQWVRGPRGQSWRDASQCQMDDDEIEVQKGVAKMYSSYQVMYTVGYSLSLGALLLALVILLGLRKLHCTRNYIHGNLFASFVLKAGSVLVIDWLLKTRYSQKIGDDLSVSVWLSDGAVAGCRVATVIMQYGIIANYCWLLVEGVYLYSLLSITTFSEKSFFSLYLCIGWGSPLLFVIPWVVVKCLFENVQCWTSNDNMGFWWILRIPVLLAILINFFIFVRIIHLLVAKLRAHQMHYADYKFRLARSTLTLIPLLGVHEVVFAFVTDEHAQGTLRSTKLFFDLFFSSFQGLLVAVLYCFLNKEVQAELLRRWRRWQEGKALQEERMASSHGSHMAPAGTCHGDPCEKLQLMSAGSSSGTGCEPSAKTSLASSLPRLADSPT

Question: How did the Kb turn out when H-SQGTTSEYSKYLDSRRAQDFVQWLMNT-NH2 was run?
Answer: 6.31 nM
